# Where a name gives a salt, the structure may show the parent alone. Marks after values point to notes of the source that are not given here.
# Tested on: eyes of patients with pupil size in dim light of greater than 7 mm
# Experiment: Example 2 clinical study: monocular low contrast visual acuity under photopic conditions (5% tint chart)
# Assay type: in vivo, humans
# Conditions: for mean low contrast acuity compared to baseline: paired t-test
# Method: Sixteen patients were randomized into four groups (of four subjects each). Each group was treated on three successive study visits separated by at least 4 days with one drop of ophthalmic oxymetazoline solution (Visine LR®) in each eye followed by one drop test article in each eye. The test article was a 0.2% (w/v) phentolamine mesylate solution, 0.4% (w/v) phentolamine mesylate solution, 0.8% (w/v) phentolamine mesylate solution, or placebo. Test articles contained the designed amount of phentolamine mesylate in a solution of Tears Naturale II® (from Alcon Labs). Placebo was just Tears Naturale II® (from Alcon Labs). Tears Naturale II® (from Alcon Labs) contains Dextran 70 (0.1% by weight), Hydroxypropyl Methylcellulose 2910 (0.3% by weight), Polyquarternium-1 (0.001% by weight), potassium chloride, water (purified), sodium borate, sodium chloride, and hydrochloric acid and/or sodium hydroxide as necessary to adjust the pH. The patients' eye redness and pupil diameters were recorded at baseline (i.e., prior to treatment administration), and at 30 minutes, 1 hour, 2 hours, 4 hours, and 8 hours after administration of test articles. The incidence of any treatment-emergent adverse events was also recorded. Total study duration was approximately nine hours.
# Eye redness of patients' eyes was evaluated by the research assistant and recorded as a single integer of value 0 (no redness) to 4 (extreme redness) at baseline and each time point after treatment. Pupil diameters were measured to within 0.1 mm for each eye at baseline and each subsequent time point using a NeurOptics™ pupilometer. Monocular high contrast visual acuity was measured for each eye under photopic conditions at baseline and each subsequent time point in a darkened room using a Precision Vision™ High Contrast (100% tint) Visual Acuity Chart (Catalog #2102) backlit by the Precision Vision Illumination Box. Monocular low contrast visual acuity was measured for each eye under photopic conditions at baseline and each subsequent time point in a darkened room using a Precision Vision™ Low Contrast (5% tint) Visual Acuity Chart (Catalog #2186) backlit by the Precision Vision Illumination Box. Effect of treatment on glare was assessed using an experimental test method consisting of a panel with a high wattage central light emitting diode (LED) and a set of 7 lower wattage red LEDs radiating horizontally and vertically from the central light.
# Comparisons of changes in mean values within treatment groups were tested for significance using two-tailed paired two sample t-tests with a threshold for significance set at p<0.01 (Bonferroni Correction for multiple paired t-tests). Differences between treatment groups with respect to mean values for pupil size over the course of the study were tested for significance using repeated measure ANOVA (which discards data from subjects lacking any data points). Differences in mean eye redness between treatment groups were evaluated using Kruskal-Wallis nonparametric testing. Differences in means between treatment groups at individual time points were tested for significance using one-way ANOVA.
# [1] = 0.2% (w/v) solution, 30 min after treatment
# [2] = 0.2% (w/v) solution, 1 hour after treatment
# [3] = 0.2% (w/v) solution, 2 hours after treatment
# [4] = 0.2% (w/v) solution, 4 hours after treatment
# [5] = 0.2% (w/v) solution, 8 hours after treatment
# [6] = 0.2% (w/v) solution, Baseline, prior to treatment
# [7] = 0.4% (w/v) solution, 30 min after treatment
# [8] = 0.4% (w/v) solution, 1 hour after treatment
# [9] = 0.4% (w/v) solution, 2 hours after treatment
# [10] = 0.4% (w/v) solution, 4 hours after treatment
# [11] = 0.4% (w/v) solution, 8 hours after treatment
# [12] = 0.4% (w/v) solution, Baseline, prior to treatment
# [13] = 0.8% (w/v) solution, 30 min after treatment
# [14] = 0.8% (w/v) solution, 1 hour after treatment
# [15] = 0.8% (w/v) solution, 2 hours after treatment
# [16] = 0.8% (w/v) solution, 4 hours after treatment
# [17] = 0.8% (w/v) solution, 8 hours after treatment
# [18] = 0.8% (w/v) solution, Baseline, prior to treatment
compound,measurement,setting,value
"Cc1ccc(N(CC2=NCCN2)c2cccc(O)c2)cc1 [Phentolamine Mesylate, phentolamine mesylate]",Maximum low contrast visual acuity,[1],−0.10 LogMar
same,Mean low contrast visual acuity,[1],−0.35 LogMar
same,Minimum low contrast visual acuity,[1],−0.78 LogMar
same,Maximum low contrast visual acuity,[2],−0.08 LogMar
same,Mean low contrast visual acuity,[2],−0.32 LogMar
same,Minimum low contrast visual acuity,[2],−0.80 LogMar
same,Maximum low contrast visual acuity,[3],−0.11 LogMar
same,Mean low contrast visual acuity,[3],−0.32 LogMar
same,Minimum low contrast visual acuity,[3],−0.74 LogMar
same,Maximum low contrast visual acuity,[4],0.00 LogMar
same,Mean low contrast visual acuity,[4],−0.30 LogMar
same,Minimum low contrast visual acuity,[4],−0.76 LogMar
same,Maximum low contrast visual acuity,[5],−0.08 LogMar
same,Mean low contrast visual acuity,[5],−0.30^e LogMar
same,Minimum low contrast visual acuity,[5],−0.72 LogMar
same,Maximum low contrast visual acuity,[6],−0.06 LogMar
same,Mean low contrast visual acuity,[6],−0.34^d LogMar
same,Minimum low contrast visual acuity,[6],−0.80 LogMar
same,Maximum low contrast visual acuity,[7],0.00 LogMar
same,Mean low contrast visual acuity,[7],−0.24 LogMar
same,Minimum low contrast visual acuity,[7],−0.70 LogMar
same,Maximum low contrast visual acuity,[8],−0.04 LogMar
same,Mean low contrast visual acuity,[8],−0.24 LogMar
same,Minimum low contrast visual acuity,[8],−0.78 LogMar
same,Maximum low contrast visual acuity,[9],0.00 LogMar
same,Mean low contrast visual acuity,[9],−0.22 LogMar
same,Minimum low contrast visual acuity,[9],−0.64 LogMar
same,Maximum low contrast visual acuity,[10],0.00 LogMar
same,Mean low contrast visual acuity,[10],−0.20 LogMar
same,Minimum low contrast visual acuity,[10],−0.70 LogMar
same,Maximum low contrast visual acuity,[11],0.00 LogMar
same,Mean low contrast visual acuity,[11],−0.22 LogMar
same,Minimum low contrast visual acuity,[11],−0.64 LogMar
same,Maximum low contrast visual acuity,[12],−0.10 LogMar
same,Mean low contrast visual acuity,[12],−0.28 LogMar
same,Minimum low contrast visual acuity,[12],−0.74 LogMar
same,mean low contrast acuity compared to baseline,"0.4% (w/v), 1, 2, 4, and 8 hours post treatment",significant increases
same,Maximum low contrast visual acuity,[13],−0.02 LogMar
same,Mean low contrast visual acuity,[13],−0.28 LogMar
same,Minimum low contrast visual acuity,[13],−0.76 LogMar
same,Maximum low contrast visual acuity,[14],0.00 LogMar
same,Mean low contrast visual acuity,[14],−0.25 LogMar
same,Minimum low contrast visual acuity,[14],−0.62 LogMar
same,Maximum low contrast visual acuity,[15],0.00 LogMar
same,Mean low contrast visual acuity,[15],−0.22 LogMar
same,Minimum low contrast visual acuity,[15],−0.60 LogMar
same,Maximum low contrast visual acuity,[16],0.00 LogMar
same,Mean low contrast visual acuity,[16],−0.22 LogMar
same,Minimum low contrast visual acuity,[16],−0.70 LogMar
same,Maximum low contrast visual acuity,[17],0.00 LogMar
same,Mean low contrast visual acuity,[17],−0.25 LogMar
same,Minimum low contrast visual acuity,[17],−0.78 LogMar
same,Maximum low contrast visual acuity,[18],−0.11 LogMar
same,Mean low contrast visual acuity,[18],−0.34 LogMar
same,Minimum low contrast visual acuity,[18],−0.78 LogMar
same,mean low contrast acuity compared to baseline,"0.8% (w/v), all post-treatment time points",significant increases
same,maximal mean increase in low contrast visual acuity,"0.8% (w/v), at 2 hours",0.12 Log Mar
same,improvement in low contrast vision,"0.8% (w/v), at 2 hours, equivalent of the maximal mean increase",~6 letters on a Snellen chart
same,"mean low contrast visual acuity, 0.2% (w/v) versus 0.4% and 0.8% (w/v) (ad hoc Fisher's test)","2 hours post-dosing, P<0.05",significant differences

# — patent US11000509B2, “Methods and compositions for daily ophthalmic administration of phentolamine to improve visual performance” (Ocuphire Pharma, Inc., priority 2013, dated 2021)
